The values below come from BindingDB's records for doi:10.1016/S0960-894X(01)80714-9 (1993).

Assay [1] can be described thus: The compound was evaluated in vitro for the inhibition of rat leukocyte elastase(RLE).
Assay [2] is described as follows: The compound was evaluated in vitro for the inhibition of pancreatitic porcine elastase(PPE).

For orientation: IC50 means the concentration that inhibits the measured activity by half. With `CO[C@@H]1C(=O)N(C(C)=O)[C@@H]1c1ccccc1` [(3S,4R)-1-Acetyl-3-methoxy-4-phenyl-azetidin-2-one], the IC50 in assay [1] was 0.4 µM; in assay [2], 0.7 µM.

On to `CCCC[C@@H]1C(=O)N(C(C)=O)[C@@H]1C(C)=O` [(3S,4S)-1,4-Diacetyl-3-butyl-azetidin-2-one], for which the IC50 was 37 µM in assay [1] and greater than 160 µM in assay [2].

Turning to `CO[C@@H]1C(=O)N(C(C)=O)[C@@H]1C(C)=O` [(3S,4S)-1,4-Diacetyl-3-methoxy-azetidin-2-one], the IC50 in assay [1] amounted to 11 µM; in assay [2] it was 26 µM.
